According to patent US8946413B2 (Pfizer Inc., priority 2008, dated 2015):
Read-outs that look alike come from different tables or passages of the source.

Columns and labels:
[1] = system: streptozotocin (STZ)-induced diabetic rat model; test: Diabetic nephropathy rat model (STZ-induced), 24-hour urinary albumin excretion; type: in vivo; conditions: STZ diabetic male Wistar rats
Excerpt: A rat model of diabetic nephropathy was used to determine the renal protective effect of pharmacological inhibition of CCR2. The streptozotocin (STZ)-induced diabetic rat model has been extensively used for studying the progression of diabetic renal disease. STZ injection causes immediate destruction of pancreatic β-cells, consequently hyperglycemia and progression of nephropathy similar to that seen in human diabetes mellitus. Diabetes was induced in male Wistar rats by single administration of STZ (45 mp/kg, iv). Three days after the induction of diabetes, fasting blood glucose levels were assessed. Animals with fasting blood glucose levels higher than 200 mg/dL were included in the study. All the treatments were then initiated. 1,5-anhydro-2,3-dideoxy-3-{[(1R,3S)-3-isopropyl-3-({(1S,4S)-5-[6-(trifluoromethyl)pyrimidin-4-yl]-2,5-diazabicyclo[2.2.1]hept-2-yl}carbonyl)cyclopentyl]amino}-4-O-methyl-D-erythro-pentitol was administered at doses of 0.03, 0.3, 1, and 10 mg/kg (mpk) (in the chow) for 11 weeks. 24-hour urine collections were obtained at 1, 4, 8, and 11 weeks after the treatment for assessing 24-hour urinary albumin excretion (UAE).

CCR2 = target: T1, CCR2 (Homo sapiens, UniProt P41597); test: hCCR2 (125-I hMCP-1) small molecule binding assay on human PBMCs; conditions: 125I-MCP-1, human PBMCs
T1 construct: (leukophoresis pack); host or cells: human peripheral blood mononuclear cells (PBMCs) from a normal human leukophoresis pack
T1 sequence (P41597 whole entry): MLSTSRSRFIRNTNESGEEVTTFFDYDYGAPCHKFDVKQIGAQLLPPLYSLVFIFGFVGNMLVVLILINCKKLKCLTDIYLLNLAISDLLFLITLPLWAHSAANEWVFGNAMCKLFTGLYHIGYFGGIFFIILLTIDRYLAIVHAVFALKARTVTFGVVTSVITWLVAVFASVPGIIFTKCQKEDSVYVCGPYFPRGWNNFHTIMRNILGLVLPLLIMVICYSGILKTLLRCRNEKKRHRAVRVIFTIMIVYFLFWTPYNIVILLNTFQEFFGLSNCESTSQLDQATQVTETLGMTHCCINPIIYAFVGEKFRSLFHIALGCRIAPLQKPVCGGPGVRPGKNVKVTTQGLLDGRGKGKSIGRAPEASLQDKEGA
Method in brief: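 Ficoll-isolated human PBMCs pre-incubated 30 min or 1 h with compound at 0.333 μM final (0.67% DMSO), then incubated 30 min at room temperature with 150 pM 125I-hMCP-1 in RPMI/0.1% BSA/20 mM HEPES. Filter-bound radioactivity counted by gamma counter. 100% inhibition defined with 1 μM hMCP-1; IC50 plates run n=2.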

[2] = 30 min preincubation, read-out: IC50 (nM) 30 min preinc

SMILES	24-hour urinary albumin excretion (UAE) ([1]; 0.03 mpk in the chow, week 11) [mg/24 h]	24-hour urinary albumin excretion (UAE) ([1]; 0.3 mpk in the chow, week 8) [mg/24 h]	24-hour urinary albumin excretion (UAE) ([1]; 0.3 mpk in the chow, week 11) [mg/24 h]	24-hour urinary albumin excretion (UAE) ([1]; 1 mpk in the chow, week 8) [mg/24 h]	24-hour urinary albumin excretion (UAE) ([1]; 1 mpk in the chow, week 11) [mg/24 h]	24-hour urinary albumin excretion (UAE) ([1]; 10 mpk in the chow, week 8) [mg/24 h]	24-hour urinary albumin excretion (UAE) ([1]; 10 mpk in the chow, week 11) [mg/24 h]	IC50 (CCR2; [2]) [nM]	IC50 (CCR2; 1 hr preincubation, read-out: IC50 (nM) 1 hr preinc) [nM]
CO[C@@H]1COCC[C@@H]1N[C@@H]1CC[C@@](C(=O)N2C[C@@H]3C[C@H]2CN3c2cc(C(F)(F)F)ncn2)(C(C)C)C1 [Example 13, 1,5-anhydro-2,3-dideoxy-3-{[(1R,3S)-3-isopropyl-3-({(1S,4S)-5-[6-(trifluoromethyl)pyrimidin-4-yl]-2,5-diazabicyclo[2.2.1]hept-2-yl}carbonyl)cyclopentyl]amino}-4-O-methyl-D-erythro-pentitol]	2.17±1.31	1.73±0.69	1.96±0.85	1.09±0.20	1.66±0.65	0.71±0.22	1.02±0.32	25.4	3.68
CO[C@@H]1COCC[C@@H]1N[C@@H]1CC[C@@](C(=O)N2C[C@@H]3C(F)[C@H]2CN3C(=O)OC(C)(C)C)(C(C)C)C1 (stereo partly drawn) [Example 71, tert-butyl 7-fluoro-5-((1S,3R)-1-isopropyl-3-((3S,4S)-3-methoxy-tetrahydro-2H-pyran-4-ylamino)cyclopentanecarbonyl)-2,5-diaza-bicyclo[2.2.1]heptane-2-carboxylate]	–	–	–	–	–	–	–	3.7	–
